According to patent US20030195350A1, “Individualization of therapy with antiviral agents” (priority 2001, published 2003):
Where two headings read alike, the source gives them in different places. Marks after values point to notes of the source that are not given here.

How the values were obtained:
[1] = test system: AAMU-Ab; test: Competitive antigen ELISA, cross-reactivity of AAMU-Ab; assay type: binding, rabbit; conditions: 0 = absence of inhibition or inhibition no higher than 40% at 5 × 10^−3 M
Protocol: (§1) Buffers and water without additives are filtered through millipore filters and kept for 1 week. BSA, antibodies, Tween™ 20 and horse radish peroxidase conjugates are added to these buffers and water just prior to use. Urine samples are usually collected 4 hours after drinking a cup of coffee (instant or brewed with approximately 100 mg of caffeine per cup) and stored at −80° C. The urine samples are diluted 10 times with sodium phosphate buffer (620 mosm, pH 7.50) and are subsequently diluted with water to give concentrations of AAMU and 1X no higher than 3×10^−6 M in the ELISA. All the pipettings are done with an eight-channel pipette, except those of the antibody and sample solutions. Starting with the last well, 100 μL of a carbonate buffer (100 mM, pH 9.6) containing 2.5 μg mL^−1 antibodies are added to each well. After 90 min. at room temperature, the wells are washed three times with […] of TPB: isotonic sodium phosphate buffer (310 mosm, pH 7.50) containing 0.05% Tween™ 20.
(§2) After the initial wash, unoccupied sites are blocked by incubation for 90 min. at room temperature with 100 μL TBP containing 3% BSA. The wells are washed four times with 100 μL TPB. […] The microplate is gently shaken with an orbital shaker at room temperature for 3-4 hours. The wells are washed three times with 100 μL TPB containing 1% BSA and three times with water containing 0.05% Tween™ 20. To the washed plate is added 150 μL of a substrate buffer composed of citric acid (25 mM) and sodium phosphate dibasic buffer (50 mM, pH 5.0) containing 0.06% hydrogen peroxide and 0.04% o-phenylenediamine hydrochloride.
(§3) Buffers and water without additives were filtered through millipore filters and kept for 1 week. BSA, antibodies, Tween™ 20 and horse radish peroxidase conjugates were added to these buffers and water just prior to use. Urine samples were usually collected 4 hours after drinking a cup of coffee (instant or brewed with approximately 100 mg of caffeine per cup) and stored at −80° C. They were diluted 10 times with sodium phosphate buffer (620 mosm, pH 7.50) and were subsequently diluted with water to give concentrations of AAMU and 1X no higher than 3×10^−6 M in the ELISA. All the pipettings were done with an eight-channel pipette, except those of the antibody and sample solutions. Starting with the last well, 100 μL of a carbonate buffer (100 mM, pH 9.6) containing 2.5 μg mL^−1 antibodies was pipetted. After 90 min. at room temperature, the wells were washed three times with 100 μL of TPB: isotonic sodium phosphate buffer (310 mosm, pH 7.50) containing 0.05% Tween™ 20.
(§4) After the initial wash, unoccupied sites were blocked by incubation for 90 min. at room temperature with 100 μL TBP containing 3% BSA. The wells were washed four times with 100 μL TPB. […] The microplate was gently shaken with an orbital shaker at room temperature for 3-4 hours. The wells were washed three times with 100 μL with TPB containing 1% BSA and three times with water containing 0.05% Tween™ 20. To the washed plate was added 150 μL of a substrate buffer composed of citric acid (25 mM) and sodium phosphate dibasic buffer (50 mM, pH 5.0) containing 0.06% hydrogen peroxide and 0.04% o-phenylenediamine hydrochloride. After 20 min. at room temperature with shaking, the reaction was stopped with 50 μL of 2.5 N HCl.
(§5) The cross reactivities of AAMU-Ab and 1X-Ab were tested using a wide variety of caffeine metabolites and structural analogs (Table 3 below).

[2] = test system: 1X-Ab; test: Competitive antigen ELISA, cross-reactivity of 1X-Ab; assay type: binding, rabbit; conditions: 0 = absence of inhibition or inhibition no higher than 40% at 5 × 10^−3 M
Protocol: as §1, §2, §3, §4, §5

[3] = co-administration with ritonavir; cited from earlier work
[4] = in vivo; cited from earlier work
[5] = cited from earlier work
[6] = test system: HIV isolates; conditions: HIV isolates from individuals during ritonavir therapy vs matched baseline isolates; cited from earlier work
[7] = in vivo; cited from earlier work; remark: listed apart in the source

Compound: Cn1c(=O)c2c(ncn2C)n(C)c1=O [1,3,7-Trimethyl Xanthine (Caffeine), 1,3,7-Trimethyl Xanthine]
- % Cross-Reaction AAMU-Ab [1]: 0%
- % Cross-Reaction 1X-Ab [2]: 0%

Compound: Cn1c(=O)c2[nH]cnc2n(C)c1=O [1,3-Dimethyl Xanthine (Theophylline), 1,3-Dimethyl Xanthine]
- % Cross-Reaction AAMU-Ab [1]: 0%
- % Cross-Reaction 1X-Ab [2]: 0.2%
- Effect (on drug concentration) [3]: down theophylline

Compound: Cn1c(=O)[nH]c2ncn(C)c2c1=O [1,7-Dimethyl Xanthine (Paraxanthine), 1,7-Dimethyl Xanthine]
- % Cross-Reaction AAMU-Ab [1]: 0%
- % Cross-Reaction 1X-Ab [2]: 0.5%

Compound: Cn1c(=O)[nH]c2[nH]c(=O)n(C)c2c1=O [1,7-Dimethyluric acid]
- % Cross-Reaction AAMU-Ab [1]: 0%
- % Cross-Reaction 1X-Ab [2]: 0%

Compound: Cn1c(=O)[nH]c2nc[nH]c2c1=O [1-Methyl Xanthine (1X), 1-Methyl Xanthine]
- % Cross-Reaction AAMU-Ab [1]: 0%
- % Cross-Reaction 1X-Ab [2]: 100%

Compound: Cn1c(=O)[nH]c2[nH]c(=O)[nH]c2c1=O [1-Methyluric acid]
- % Cross-Reaction AAMU-Ab [1]: 0%
- % Cross-Reaction 1X-Ab [2]: 11%

Compound: Cn1cnc2c1c(=O)[nH]c(=O)n2C [3,7-Dimethyl Xanthine (Theobromine), 3,7-Dimethyl Xanthine]
- % Cross-Reaction AAMU-Ab [1]: 0%
- % Cross-Reaction 1X-Ab [2]: 0%

Compound: Cn1c(=O)[nH]c(=O)c2[nH]cnc21 [3-Methyl Xanthine]
- % Cross-Reaction AAMU-Ab [1]: 0%
- % Cross-Reaction 1X-Ab [2]: 0%

Compound: CC(=O)Nc1c(N)n(C)c(=O)n(C)c1=O [5-Acetamino-6-amino-1,3-dimethyluracil]
- % Cross-Reaction AAMU-Ab [1]: 0%
- % Cross-Reaction 1X-Ab [2]: 0%

Compound: CC(=O)Nc1c(N)n(C)c(=O)[nH]c1=O [5-Acetamino-6-amino-1-methyluracil]
- % Cross-Reaction AAMU-Ab [1]: 100%
- % Cross-Reaction 1X-Ab [2]: 0%

Compound: CC(=O)Nc1c(N)[nH]c(=O)[nH]c1=O [5-Acetamino-6-amino-uracil]
- % Cross-Reaction AAMU-Ab [1]: 0.6%
- % Cross-Reaction 1X-Ab [2]: 0%

Compound: Cn1cnc2[nH]c(=O)[nH]c(=O)c21 [7-Methyl Xanthine]
- % Cross-Reaction AAMU-Ab [1]: 0%
- % Cross-Reaction 1X-Ab [2]: 0%

Compound: Cc1nc2[nH]c(=O)[nH]c(=O)c2[nH]1 [8-Methyl Xanthine]
- % Cross-Reaction AAMU-Ab [1]: 0%
- % Cross-Reaction 1X-Ab [2]: 0%

Compound: CC(C)[C@H](NC(=O)N(C)Cc1csc(C(C)(C)O)n1)C(=O)N[C@@H](Cc1ccccc1)C[C@H](O)[C@H](Cc1ccccc1)NC(=O)OCc1cncs1 [Compound M-2]
- concentrations of metabolite in plasma [4]: low

Compound: COc1ccc2c(c1)[C@]13CCCC[C@@H]1[C@H](C2)N(C)CC3 [Dextromethorphan]
- mean performance+/−SE ([5]; EMs (extensive metabolizers)): 95+/−0.5%
- mean performance+/−SE ([5]; PMs (poor metabolizers)): 86+/−6%

Compound: Nc1nc2nc[nH]c2c(=O)[nH]1 [Guanine]
- % Cross-Reaction AAMU-Ab [1]: 0%
- % Cross-Reaction 1X-Ab [2]: 0%

Compound: O=c1[nH]cnc2nc[nH]c12 [Hypoxanthine]
- % Cross-Reaction AAMU-Ab [1]: 0%
- % Cross-Reaction 1X-Ab [2]: 0%

Compound: CC(C)(C)NC(=O)[C@@H]1CN(Cc2cccnc2)CCN1C[C@@H](O)C[C@@H](Cc1ccccc1)C(=O)N[C@H]1c2ccccc2C[C@H]1O [Indinavir, indinavir]
- decrease in susceptibility in vitro [6]: 8 fold

Compound: CC(=O)N1CCN(c2ccc(OCC3COC(Cn4ccnc4)(c4ccc(Cl)cc4Cl)O3)cc2)CC1 (stereo not shown) [Ketoconazole]
- Effect (on drug concentration) [3]: up ketoconazole

Compound: CCOC(=O)C1(c2ccccc2)CCN(C)CC1 [Meperidine]
- Effect (on drug concentration) [3]: down meperidine

Compound: CCC(=O)C(CC(C)N(C)C)(c1ccccc1)c1ccccc1 (stereo not shown) [Methadone]
- Effect (on drug concentration) [3]: down methadone

Compound: CC(C)(C)NC(=O)[C@@H]1C[C@@H]2CCCC[C@@H]2CN1C[C@@H](O)[C@H](Cc1ccccc1)NC(=O)[C@H](CC(N)=O)NC(=O)c1ccc2ccccc2n1 [Saquinavir, saquinavir]
- decrease in susceptibility in vitro [6]: did not demonstrate a concordant decrease in susceptibility

Compound: O=c1cc[nH]c(=O)[nH]1 [Uracil]
- % Cross-Reaction AAMU-Ab [1]: 0%
- % Cross-Reaction 1X-Ab [2]: 0%

Compound: O=c1[nH]c(=O)c2[nH]c(=O)[nH]c2[nH]1 [Uric acid]
- % Cross-Reaction AAMU-Ab [1]: 0%
- % Cross-Reaction 1X-Ab [2]: 0%

Compound: O=c1[nH]c(=O)c2[nH]cnc2[nH]1 [Xanthine]
- % Cross-Reaction AAMU-Ab [1]: 0^a %
- % Cross-Reaction 1X-Ab [2]: 0%

Compound: Cc1cn([C@H]2C[C@H](N=[N+]=[N-])[C@@H](CO)O2)c(=O)[nH]c1=O [ZDV, zidovudine]
- Adverse event: Abdominal Pain [7]: 5.9%
- Adverse event: Anorexia [7]: 4.2%
- Adverse event: Anxiety [7]: 0.8%
- Adverse event: Arthralgia [7]: 0.0%
- Adverse event: Asthenia [7]: 11.8%
- Adverse event: Circumoral Paresthesia [7]: 0.0%
- Adverse event: Confusion [7]: 0.0%
- Adverse event: Constipation [7]: 0.8%
- Adverse event: Depression [7]: 2.5%
- Adverse event: Diarrhea [7]: 2.5%
- Adverse event: Dizziness [7]: 3.4%
- Adverse event: Dyspepsia [7]: 1.7%
- Adverse event: Fecal Incontinence [7]: 0.0%
- Adverse event: Fever [7]: 1.7%
- Adverse event: Flatulence [7]: 1.7%
- Adverse event: Headache [7]: 6.7%
- Adverse event: Insomnia [7]: 0.8%
- Adverse event: Local Throat Irritation [7]: 0.8%
- Adverse event: Malaise [7]: 3.4%
- Adverse event: Myalgia [7]: 0.8%
- Adverse event: Nausea [7]: 26.1%
- Adverse event: Nocturia [7]: 0.0%
- Adverse event: Pain (unspecified) [7]: 0.8%
- Adverse event: Paresthesia [7]: 0.0%
- Adverse event: Peripheral Paresthesia [7]: 0.8%
- Adverse event: Pharyngitis [7]: 0.0%
- Adverse event: Rash [7]: 0.8%
- Adverse event: Somnolence [7]: 0.0%
- Adverse event: Sweating [7]: 1.7%
- Adverse event: Syncope [7]: 0.8%
- Adverse event: Taste Perversion [7]: 8.4%
- Adverse event: Thinking Abnormal [7]: 0.8%
- Adverse event: Vasodilation [7]: 0.8%
- Adverse event: Vomiting [7]: 12.6%
- Adverse event: Weight Loss [7]: 0.0%

Compound: CC(C)CN(C[C@@H](O)[C@H](Cc1ccccc1)NC(=O)O[C@H]1CCOC1)S(=O)(=O)c1ccc(N)cc1 [amprenavir]
- decrease in susceptibility in vitro [6]: none

Compound: CCOC(=O)C1(c2ccccc2)CCNCC1 [normeperidine]
- Effect (on drug concentration) [3]: up normeperidine
